Here are results for one compound from US10806693B2, “Method for increasing lipolysis using a composition comprising bioactive Nelumbo nucifera (lotus) extract” (ISP Investments LLC, priority 2016, dated 2020).

This experiment can be described thus: Lipolysis: glycerol release from differentiated 3T3-L1 adipocytes. The conditions noted are these: 2 mM, twice a day for 48 hours. Format: cell-based. How it is done:
This study aims to evaluate in vitro effect of Nelumbo nucifera (Lotus) Extract on lipolysis by evaluating glycerol release on preadipocytes. Lipolysis is the hydrolysis of triglycerides into glycerol and fatty acids. The amount of glycerol release will be proportional to both the amount of stored triglyceride and the degree of lipolysis 3T3-L1 pre-adipocytes (ATCC) were cultured in DMEM 4.5 g/L glucose (Lonza) supplemented with 10% of FBS (Lonza), 2 mM of L-Glutamine (Lonza) and 100 μg/ml of Primocin (InvivoGen). 2 days after the cells' confluence, differentiation into adipocytes was induced by adding 0.5 mM IBMX, 1 μM dexamethasone and 10 μg/ml insulin (Sigma) in the culture medium for 3 days. Afterwards, IBMX and dexamethasone were removed and only the insulin was maintained for 3 to 4 days; then, the insulin was also removed, and the cells were maintained in culture medium for another 3 days. After differentiation, cells were treated with Nelumbo nucifera (Lotus) Extract of example 1 diluted at 1/10.000 eme in culture medium, further noted as Lotus 0.01% (volume/volume) or with 2 mM caffeine positive control, twice a day for 48 hours. Then glycerol release was measured using Adipolysis Assay Kit (Cayman Chemical), according to the manufacturer's instructions.

SMILES strings stand for the structures.

With `Cn1c(=O)c2c(ncn2C)n(C)c1=O` [Caffeine, caffeine], the “Glycerol release (% of untreated)” value is listed as 131 % of untreated.
